Measured values taken from ChEMBL document CHEMBL3997829, “Discovery of novel substituted octahydropyrrolo[3,4-c]pyrroles as dual orexin receptor antagonists for insomnia treatment” (Bioorg Med Chem Lett, 2017).
pIC50: −log10 of the molar value. In brackets after ≈: the same amount, converted by molar mass.

Key:
[1] = biological target: T1, Orexin/Hypocretin receptor type 1 (Homo sapiens, UniProt O43613); experiment: Antagonist activity at human orexin 1 receptor expressed in HEK293 cells assessed as inhibition of orexin-induced calcium mobilization after 60 mins by FLIPR assay; type: functional, cell-based
T1 sequence (O43613 whole entry): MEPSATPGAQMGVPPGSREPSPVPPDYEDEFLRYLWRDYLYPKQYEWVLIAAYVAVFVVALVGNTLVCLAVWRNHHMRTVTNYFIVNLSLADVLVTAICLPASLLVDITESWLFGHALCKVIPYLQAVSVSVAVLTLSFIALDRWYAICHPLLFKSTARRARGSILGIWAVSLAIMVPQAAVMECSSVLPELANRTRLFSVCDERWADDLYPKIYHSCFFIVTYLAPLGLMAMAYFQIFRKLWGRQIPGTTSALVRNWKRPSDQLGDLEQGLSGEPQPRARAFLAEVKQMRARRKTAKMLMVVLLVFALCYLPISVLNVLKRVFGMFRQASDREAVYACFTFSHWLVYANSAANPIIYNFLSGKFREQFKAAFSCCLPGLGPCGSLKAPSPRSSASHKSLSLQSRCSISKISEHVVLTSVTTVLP

Orexin receptor type 2 = biological target: T2, Orexin receptor type 2 (Homo sapiens, UniProt O43614); experiment: Antagonist activity at human orexin 2 receptor expressed in HEK293 cells assessed as inhibition of orexin-induced calcium mobilization after 60 mins by FLIPR assay; type: functional, cell-based
T2 sequence (O43614 whole entry): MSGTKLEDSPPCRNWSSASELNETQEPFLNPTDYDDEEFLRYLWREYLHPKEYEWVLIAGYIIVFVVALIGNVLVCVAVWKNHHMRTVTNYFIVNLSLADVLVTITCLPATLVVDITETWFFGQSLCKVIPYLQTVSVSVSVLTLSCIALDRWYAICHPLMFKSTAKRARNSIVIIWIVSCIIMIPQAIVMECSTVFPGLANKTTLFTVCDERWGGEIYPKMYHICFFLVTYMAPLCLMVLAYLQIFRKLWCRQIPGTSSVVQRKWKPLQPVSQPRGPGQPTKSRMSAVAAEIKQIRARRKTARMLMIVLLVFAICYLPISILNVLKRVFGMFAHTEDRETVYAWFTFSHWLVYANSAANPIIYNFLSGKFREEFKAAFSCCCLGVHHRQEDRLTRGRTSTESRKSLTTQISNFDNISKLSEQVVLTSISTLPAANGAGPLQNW

[2] = Thermodynamic solubility of the compound in phosphate buffer at pH 7.4 by HPLC method; type: physicochemical; conditions: read-out: Therm_solubility
[3] = Plasma concentration in Sprague-Dawley rat at 10 mg/kg, po at 0.3 hrs; type: ADME, organism-based
[4] = Plasma concentration in Sprague-Dawley rat at 10 mg/kg, po at 1 hr; type: ADME, organism-based
[5] = Plasma concentration in Sprague-Dawley rat at 10 mg/kg, po at 4 hrs; type: ADME, organism-based
Brain [6] = experiment: Drug uptake in Sprague-Dawley rat brain at 10 mg/kg, po at 0.3 hrs; type: ADME, organism-based; conditions: in vivo
Brain [7] = experiment: Drug uptake in Sprague-Dawley rat brain at 10 mg/kg, po at 1 hr; type: ADME, organism-based; conditions: in vivo
Brain [8] = experiment: Drug uptake in Sprague-Dawley rat brain at 10 mg/kg, po at 4 hrs; type: ADME, organism-based; conditions: in vivo
[9] = Ratio of drug level in brain to plasma in Sprague-Dawley rat at 10 mg/kg, po at 0.5 hrs; type: ADME, organism-based; conditions: read-out: BPR
[10] = Ratio of drug level in brain to plasma in Sprague-Dawley rat at 10 mg/kg, po at 1 hr; type: ADME, organism-based; conditions: read-out: BPR
[11] = Ratio of drug level in brain to plasma in Sprague-Dawley rat at 10 mg/kg, po at 4 hrs; type: ADME, organism-based; conditions: read-out: BPR
[12] = Clearance in Sprague-Dawley rat at 2 mg/kg, iv; type: ADME, organism-based; conditions: in vivo
[13] = Half life in Sprague-Dawley rat at 2 mg/kg, iv; type: ADME, organism-based; conditions: in vivo
[14] = AUC in Sprague-Dawley rat at 15 mg/kg, po; type: ADME, organism-based; conditions: in vivo
[15] = Cmax in Sprague-Dawley rat at 15 mg/kg, po; type: ADME, organism-based; parameters: dose 15 mg/kg, route oral; conditions: in vivo
[16] = Tmax in Sprague-Dawley rat at 15 mg/kg, po; type: ADME, organism-based; conditions: in vivo
[17] = Oral bioavailability in Sprague-Dawley rat at 15 mg/kg; type: ADME, organism-based; conditions: in vivo
Rattus norvegicus [18] = experiment: Sleep promoting activity in Sprague-Dawley rat assessed as decrease in active wake time at 30 mg/kg, po measured over 2 hrs by electroencephalogram method; type: functional
Rattus norvegicus [19] = experiment: Sleep promoting activity in Sprague-Dawley rat assessed as decrease in active wake time at 90 mg/kg, po measured over 2 hrs by electroencephalogram method; type: functional
Rattus norvegicus [20] = experiment: Sleep promoting activity in Sprague-Dawley rat assessed as effect on rapid eye movement sleep time at 30 mg/kg, po measured over 2 hrs by electroencephalogram method; type: functional
Rattus norvegicus [21] = experiment: Sleep promoting activity in Sprague-Dawley rat assessed as effect on rapid eye movement sleep time at 90 mg/kg, po measured over 2 hrs by electroencephalogram method; type: functional
Rattus norvegicus [22] = experiment: Sleep promoting activity in Sprague-Dawley rat assessed as increase in slow wave sleep time at 30 mg/kg, po measured over 2 hrs by electroencephalogram method; type: functional
Rattus norvegicus [23] = experiment: Sleep promoting activity in Sprague-Dawley rat assessed as increase in slow wave sleep time at 90 mg/kg, po measured over 2 hrs by electroencephalogram method; type: functional
Rattus norvegicus [24] = experiment: Sleep promoting activity in po dosed Sprague-Dawley rat assessed as decrease in active wake time measured over 2 hrs by electroencephalogram method; type: functional, organism-based
Rattus norvegicus [25] = experiment: Sleep promoting activity in po dosed Sprague-Dawley rat assessed as increase in slow wave sleep time measured over 2 hrs by electroencephalogram method; type: functional, organism-based
[26] = biological target: Voltage-gated inwardly rectifying potassium channel KCNH2 (Homo sapiens, UniProt Q12809); experiment: Inhibition of human ERG
Chain of Voltage-gated inwardly rectifying potassium channel KCNH2 (Q12809 whole entry): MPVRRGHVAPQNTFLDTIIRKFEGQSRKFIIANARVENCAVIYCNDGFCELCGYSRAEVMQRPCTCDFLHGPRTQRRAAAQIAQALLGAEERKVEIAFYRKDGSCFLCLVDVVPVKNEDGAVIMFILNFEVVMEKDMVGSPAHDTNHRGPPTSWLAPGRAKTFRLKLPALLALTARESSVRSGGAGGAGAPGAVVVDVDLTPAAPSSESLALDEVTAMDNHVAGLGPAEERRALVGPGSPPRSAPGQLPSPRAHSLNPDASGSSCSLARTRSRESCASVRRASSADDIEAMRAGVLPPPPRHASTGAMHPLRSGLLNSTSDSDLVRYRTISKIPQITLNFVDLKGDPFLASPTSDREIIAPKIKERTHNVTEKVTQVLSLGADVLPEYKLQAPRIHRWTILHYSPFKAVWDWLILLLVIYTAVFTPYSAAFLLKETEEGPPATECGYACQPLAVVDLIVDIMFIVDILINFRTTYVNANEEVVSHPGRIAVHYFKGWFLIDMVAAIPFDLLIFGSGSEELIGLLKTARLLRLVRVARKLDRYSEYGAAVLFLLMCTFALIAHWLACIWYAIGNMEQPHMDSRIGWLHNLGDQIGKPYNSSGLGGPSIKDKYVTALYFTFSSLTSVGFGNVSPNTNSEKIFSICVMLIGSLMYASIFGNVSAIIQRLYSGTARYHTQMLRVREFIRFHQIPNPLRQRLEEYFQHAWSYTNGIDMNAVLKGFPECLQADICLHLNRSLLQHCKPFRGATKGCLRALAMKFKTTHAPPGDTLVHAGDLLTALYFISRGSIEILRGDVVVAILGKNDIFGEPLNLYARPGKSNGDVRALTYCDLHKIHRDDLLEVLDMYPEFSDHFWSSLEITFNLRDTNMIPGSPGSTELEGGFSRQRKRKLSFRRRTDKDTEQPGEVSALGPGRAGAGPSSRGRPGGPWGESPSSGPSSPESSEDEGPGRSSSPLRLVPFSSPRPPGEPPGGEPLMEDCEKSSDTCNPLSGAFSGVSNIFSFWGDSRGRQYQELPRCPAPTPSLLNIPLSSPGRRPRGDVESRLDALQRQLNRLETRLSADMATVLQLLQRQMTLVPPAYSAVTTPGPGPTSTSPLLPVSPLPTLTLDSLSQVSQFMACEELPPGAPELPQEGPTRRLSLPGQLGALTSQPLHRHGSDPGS

`Cc1ccc(-n2nccn2)c(C(=O)N2C[C@@H]3CN(c4nc5ccccc5o4)C[C@@H]3C2)c1` gave a pIC50 [1] of 6.52, a pIC50 (Orexin receptor type 2) of 6.75 and a solubility thermodynamic [2] of 41 µM (≈ 17 µg/mL). The concentration at 0.3 h [3] was 8800 nM, the concentration at 1 h [4] was 3470 nM and the concentration at 4 h [5] was 341 nM. It also gave a Drug uptake (Brain [6]) of 1134 nmol/kg, a Drug uptake (Brain [7]) of 429 nmol/kg and a Drug uptake (Brain [8]) of 22 nmol/kg. It also gave a Kp at 0.5 h [9] of 0.13, a Kp at 1 h [10] of 0.12 and a Kp at 4 h [11] of 0.06. The clearance [12] was 10 mL/min/kg, the half-life [13] was 114 min and the AUC [14] was 20.3 µM·h. It also gave a Cmax [15] of 10600 nM, a Tmax [16] of 15 min and a bioavailability [17] of 23%. The Time (Rattus norvegicus [18]) was 25.7 min, the Time (Rattus norvegicus [19]) was 41.1 min and the Time (Rattus norvegicus [20]) was -0.1 min. The Time (Rattus norvegicus [21]) was 4.3 min, the Time (Rattus norvegicus [22]) was 25.9 min and the Time (Rattus norvegicus [23]) was 36.9 min. For the same compound, the Activity (Rattus norvegicus [24]) was “Dose-dependent effect” and the Activity (Rattus norvegicus [25]) was “Dose-dependent effect”.
In the case of `Cc1ccc(-n2nccn2)c(C(=O)N2C[C@@]3(C)CN(c4nc5cc(Cl)ccc5o4)C[C@@]3(C)C2)c1`, the pIC50 [1] was 5.72 and the pIC50 (Orexin receptor type 2) was 5.22.
For `Cc1ccc(-n2nccn2)c(C(=O)N2C[C@@H]3CN(c4ncnc5ccccc45)C[C@@H]3C2)c1`, the pIC50 [1] was < 5.00 and the pIC50 (Orexin receptor type 2) was 5.77.
`Cc1ccc(-n2nccn2)c(C(=O)N2C[C@@H]3CN(c4nc5cc(C)ccc5o4)C[C@@H]3C2)c1` gave a pIC50 [1] of 6.95 and a pIC50 (Orexin receptor type 2) of 6.68.
Work on `O=C(c1ccccc1-n1nccn1)N1C[C@@H]2CN(c3nc4cc(Cl)ccc4o3)C[C@@H]2C1` yielded a pIC50 [1] of 6.31 and a pIC50 (Orexin receptor type 2) of 6.62.
With `Cc1ccc(-n2nccn2)c(C(=O)N2C[C@@H]3CN(c4nc(C)c(C)c(C)n4)C[C@@H]3C2)c1` the pIC50 [1] was < 5.00 and the pIC50 (Orexin receptor type 2) was 5.31.
In the case of `Cc1ccc(-n2nccn2)c(C(=O)N2C[C@@]3(F)CN(c4nc5ccccc5o4)C[C@@]3(F)C2)c1`, the pIC50 [1] was 6.04, the pIC50 (Orexin receptor type 2) was 6.24 and the pIC50 [26] was < 4.52.
With `Cc1ccc(-n2nccn2)c(C(=O)N2CCN(c3nc4cc(Cl)ccc4o3)CC[C@H]2C)c1` [SUVOREXANT] the Time (Rattus norvegicus [19]) was 46.9 min, the Time (Rattus norvegicus [21]) was 13.6 min and the Time (Rattus norvegicus [23]) was 33.5 min.
In the case of `COc1ccc(-n2nccn2)c(C(=O)N2C[C@@H]3CN(c4nc5cc(Cl)ccc5o4)C[C@@H]3C2)c1`, the pIC50 [1] was 6.29 and the pIC50 (Orexin receptor type 2) was 6.41.
Work on `Cc1ccc(-n2nccn2)c(C(=O)N2C[C@@H]3CN(c4nc(-c5cccc(Cl)c5)co4)C[C@@H]3C2)c1` yielded a pIC50 [1] of 6.00 and a pIC50 (Orexin receptor type 2) of 5.55.
Compound `Cc1ccc(-n2nccn2)c(C(=O)N2CC3CN(c4nc5cc(Cl)ccc5o4)CC3(C)C2)c1` (stereo unspecified) has a pIC50 [1] of 6.13 and a pIC50 (Orexin receptor type 2) of 5.96.
With `Cc1ccc(-n2nccn2)c(C(=O)N2C[C@@]3(F)CN(c4nc5cc(Cl)ccc5o4)C[C@@]3(F)C2)c1` the pIC50 [1] was 6.12, the pIC50 (Orexin receptor type 2) was 6.19 and the pIC50 [26] was < 4.52.
With `Cc1ccc(-n2nccn2)c(C(=O)N2C[C@@H]3CN(c4nc5cc(Cl)ccc5o4)C[C@@H]3C2)c1` the pIC50 [1] was 6.65, the pIC50 (Orexin receptor type 2) was 6.69 and the solubility thermodynamic [2] was < 2 µM. The concentration at 0.3 h [3] was 3370 nM, the concentration at 1 h [4] was 2500 nM and the concentration at 4 h [5] was 409 nM. For the same compound, the Drug uptake (Brain [6]) was 643 nmol/kg, the Drug uptake (Brain [7]) was 376 nmol/kg and the Drug uptake (Brain [8]) was 111 nmol/kg. The Kp at 0.5 h [9] was 0.19, the Kp at 1 h [10] was 0.15 and the Kp at 4 h [11] was 0.27. For the same compound, the clearance [12] was 32 mL/min/kg, the half-life [13] was 43.8 min and the AUC [14] was 5.4 µM·h. For the same compound, the Cmax [15] was 2100 nM, the Tmax [16] was 25.2 min and the bioavailability [17] was 27%.
Compound `Cc1ccc(-n2nccn2)c(C(=O)N2C[C@@H]3CN(c4nc5ccccc5n4C)C[C@@H]3C2)c1` has a pIC50 [1] of 5.79 and a pIC50 (Orexin receptor type 2) of 6.11.
